The source of these data is US20220378739A1, “NATURAL KILLER CELL IMMUNOTHERAPY FOR THE TREATMENT OF GLIOBLASTOMA AND OTHER CANCERS” (BOARD OF REGENTS, THE UNIVERSITY OF TEXAS SYSTEM, priority 2019, published 2022).

One data set has as its system K562 targets. The data set is classed as cell-based, human. The settings on record: 48 hours. The method, then:
(§1) NK cells were co-cultured for 5 hours with K562 or GSCs target cells at an optimized effector:target ratio of 5:1 together with CD107a PE-CF594 (BD Biosciences), monensin (BD GolgiStopTM) and BFA (Brefeldin A, Sigma Aldrich). NK cells were incubated without targets as the negative control and stimulated with PMA (50 ng/mL) and ionomycin ([…], Sigma Aldrich) as positive control. Cells were collected, washed and stained with surface antibodies (mentioned above), fixed/permeabilized (BD Biosciences) and stained with IFN-7 v450 and TNF-α Alexa700 (BD Biosciences) antibodies.
(§2) NK cell cytotoxicity was assessed using chromium (siCr) release assay. Briefly, K562 or GSCs target cells were labeled with siCr (PerkinElmer Life Sciences, Boston, Mass.) at 50 μCi/5×10^5 cells for 2 hours. ^51Cr-labeled K562/GSC targets (5×105) were incubated for 4 h with serially diluted magnetically isolated NK cells in triplicate. Supernatants were then harvested and analysed for ^51Cr content.
For studies of NK cell suppression by GSCs and human astrocytes, magnetically selected healthy NK cells were cultured in Serum-free Stem Cell Growth Medium (SCGM; CellGro/CellGenix) supplemented with 5% glutamine, 5 μM HEPES (both from GIBCO/Invitrogen), and 10% FCS (Biosera) in 96-well flat-bottomed plates (Nunc) at 100,000/100D11. NK cells were co-cultured either alone (positive control) or with GSCs or astrocytes at a 1:1 ratio for 48 hours at 37° C. before performing functional assays to assess NK cells cytotoxicity.
(§3) GSCs and purified NK cells were co-cultured for 48 hours in the presence of anti-TGFβ 123 (5 μg/ml) (R&D), HLA-ABC blocking antibody (clone W 6/32, Biolegend), CD44 blocking antibody (clone IM7, Biolegend), ILT-2 (CD85J) blocking antibody (clone HP-F1, ThermoFisher), CD155 blocking antibody (clone D171, GenTex), CD112 blocking antibody (clone TX31, Biolegend), 10 μM LY2109761, 10 μM galunisertib (LY2157299), 10 μM Cilengitide (Cayman Chemical) or 1 μM MMP-2/MMP-9 inhibitor I (Millipore). Cytotoxicity assays were then performed as described above.

Data set [1] concerns TGF-β1 Smad⅔ signaling pathway in NK cells. Put plainly: Phospho-Smad⅔ assay in NK cells co-cultured with GSCs. The format is cell-based, human. The settings on record: for p-Smad⅔ expression (MFI) in NK cells co-cultured with GSCs: healthy control NK cells + GSCs, inhibitor 10 μM. As for the experimental part: as §3
NK cells were stained with Live/dead-aqua and CD56 ECD (Beckman Coulter) for 20 min in the dark at RT, washed with PBS fixed for 10 min in the dark. After one wash, the cells were permeabilized (Beckman Coulter kit) and stained with p-(5465/5467)-Smad2/p-(5423/5425)/Smad3-Alexa 647 mAb Phosflow antibody (BD Biosciences) for 30 minutes at room temperature. Cells incubated with 10 ng/ml recombinant TGF-β for 45 minutes in 37° C. were used as positive control.

The next data set deals with GSC targets. Put plainly: NK cell functional assay (51Cr release; CD107a, IFN-γ, TNF-α) against GSC targets after co-culture with GSCs. The data set is classed as cell-based, human. The settings on record: 48 hours co-culture with GSCs 1:1; inhibitor 10 μM. As for the experimental part:
as §1, §2
For studies of NK cell suppression by GSCs and human astrocytes, magnetically selected healthy NK cells were cultured in Serum-free Stem Cell Growth Medium (SCGM; CellGro/CellGenix) supplemented with 5% glutamine, 5 μM HEPES (both from GIBCO/Invitrogen), and 10% FCS (Biosera) in 96-well flat-bottomed plates (Nunc) at 100,000/100D11. […]

For a further data set, the system named is soluble TGF-β1. Put plainly: TGF-β ELISA of NK cell/GSC co-culture supernatant. The data set is classed as cell-based, human. The settings on record: NK cells + GSCs, cilengitide 10 μM, 48 hours. The method, then:
NK cells and GSCs were either co-cultured or cultured alone for 48 hours in serum free SCGM growth medium. After 48 hours, supernatants were collected and secretion of TGF R and MMP2/3/9 was assessed in the supernatant by TGFβ1 ELISA kit (R&D systems) or MMP2/3/9 luminex kit (eBiosciences) as per the manufacturer's protocol.
For orientation: ELISA stands for enzyme-linked immunosorbent assay.

Data set [2] deals with NKG2D, CD9, CD103 on TiNKs. The data set can be described thus: Flow cytometry of TiNKs extracted from mouse brain tumor. The format is in vivo, mouse (NSG). The text has this: FIG. 20. […] Heat map representation of the surface markers NKG2D, CD9, CD103, PD-1 and CD69. Once the mice were sacrificed, the brain tissue was processed and TiNKs were extracted from the GBM tumor. The cells we then stained for the indicated surface markers and analyzed using flow cytometry. The expression is presented as percentage of the cells expressing each marker within the total NK cell population.
Brain tissue from the animals was collected and NK cells were isolated using a percoll (GE Healthcare) gradient fallowing protocol described by Pino et al^57. Briefly, brain tissue was dissociated using a 70 μm cell strainer (Life Science, Durham, N.C.). Cell suspension was re suspended in a 30% isotonic percoll solution and layer on top of a 70% isotonic percoll solution. Cells were centrifuged at 500 G for 30 minutes and 18 °C with no brake. 2-3 ml of the 70%-30% interface was collected in a clean tube and washed with PBS 1X. After this procedure, cells were ready for immunostaining with mouse CD45, human CD45, CD56, CD3, CD103, CD9, CD69, PD-1 and NKG2D all from Biolegend.
A general note: A flow cytometer gives signals particle by particle.

The subject of the next data set is patient-derived GSCs. Put plainly: Xenogeneic (PDX) NSG mouse model of GBM. The data set is classed as in vivo. The method, then:
To test this prediction, a PDX mouse model of patient-derived GSC was used, in which, ffLuc+ patient-derived GSCs (0.5×10^6) were stereotactically implanted on day 0 through a guide-screw into the right forebrain of NOD/SCID/IL2Rγc null mice (n=4-5 per group). After 7 days, the mice were treated intratumorally with 2.0×10^6 human NK cells every 7 days for 11 weeks (FIG. 5A) with either galunisertib to block the TGF-β signaling or cilengitide to block the integrin pathway. Galunisertib was administered five times a week by oral gavage and cilengitide three times a week by intraperitoneal injection. Animals implanted with tumor that were either untreated or received NK cells alone, galunisertib alone or cilengitide alone served as controls.
To assess the anti-tumor effect of NK cells against GSCs in vivo, a NOD/SCID IL-2R7null (NSG) human xenograft model (Jackson Laboratories, Bar Harbor, Me.) was used. Intracranial implantation of GSCs into male mice was performed as previously described^55. A total of 60 mice were used. 0.5×10^5 GSCs were implanted intracranially into the right frontal lobe of 5 week old NSG mice using a guide-screw system implanted within the skull. To increase uniformity of xenograft uptake and growth, cells were injected into 10 animals simultaneously using a multiport Microinfusion Syringe Pump (Harvard Apparatus, Holliston, Mass.). Animals were anesthetized with xylazine/ketamine during the procedure. For in vivo bioluminescent imaging, GSCs were engineered to express luciferase by lentivirus transduction. Kinetics of tumor growth was monitored using weekly bioluminescence imaging (BLI; Xenogen-IVIS 200 Imaging system; Caliper, Waltham, Mass.). Signal quantitation in photons/second (p/s) was performed by determining the photon flux rate within standardized regions of interest (ROI) using Living Image software (Caliper). […] expanded donor peripheral blood NK cells^56 were injected intracranially via the guide-screw at day 7 post tumor implantation, and then every 7 days for 11 weeks. Mice were treated with either cilengitide or galunisertib (both from MCE Med Chem Express, Monmouth Junction, NJ) in the presence or absence of intracranial NK cell injection. Cilengitide was administered intraperitoneally 3 times a week starting at day 1 (250 μg/100 μl PBS) while galunisertib was administered orally (75 mg/kg) by gavage 5 days a week starting at day 1 (see FIG. 5A). […]
Brain tissue specimens from untreated control mice, mice treated with either NK cells alone, cilengitide alone, galunisertib alone or with combination therapy of NK+ cilengitide or NK+ galunisertib were collected. […] Sections lacking tumor were also evaluated for evidence of meningoencephalitis using a Leica DM 2500 light microscope by a board-certified veterinary pathologist. […]

Data set [3] has as its system TiNKs / HC-NK cells rendered dysfunctional by GSCs. Put plainly: Reversal of established NK cell dysfunction (TiNKs ex vivo; NK cell recovery assays). The data set is classed as cell-based, human. The method, then: FIGS. 11A-11G. […] (FIG. 11A) NK cells were incubated with or without galunisertinib (10 μM) or LY2109761 (10 μM) for 48 hours. Representative zebra plots show their CD107a, IFN-γ, and TNF-α response to K562 targets. NK cells were gated on CD3-CD56+ lymphocytes. Inset numbers are the percentages of CD107a-, IFN-γ- or TNF-α-positive NK cells within the gated NK cell population. (FIGS. 11B-11C) NK cells were cultured either alone or with GSCs in a 1:1 ratio with or without LY2109761 or galunisertib for 48 hrs. Representative zebra plots and summary box plots show their CD107, IFN-γ, and TNF-α expression response to K562 (FIG. 11B) or GSC (FIG. 11C) targets. Effector:target ratio is 5:1. NK cells were defined as CD3-CD56+ lymphocytes. Inset numbers are the percentages of CD107a-, IFN-γ- or TNF-α-positive NK cells (n=7, n=4 respectively). (FIG. 11D) TiNK cells were cultured for 24 hours in media with 5 ng/ml IL-15 with or without galunisertib. Representative zebra plots and bar graph summary show their CD107, IFN-γ, and TNF-α response to K562 targets. Effector:target ratio is 5:1. NK cells were gated on CD3-CD56+ lymphocytes. Inset numbers are the percentages of CD107a-, IFN-γ- or TNF-α-positive NK cells within the indicated regions. (n=3). (FIG. 11E) TiNK cells and paired PB-NK cells from GBM patients were cultured in the presence or absence of galunisertib for 12 hours. The bar graphs summarize the mean fluorescence intensity (MFI) for their p-Smad⅔ expression. Paired t test was performed to determine statistical significance (n=3). (FIG. 11F) Specific lysis (^51Cr release assay) of K562 targets by NK cells. After 48 hours of culture alone (blue lines) or with GSCs, healthy donor NK cells were either left with GSCs (red lines), or purified and re-suspended in media for another 48 hours (black lines). NK cells were then collected and used for ^51Cr release assay (n=4). (FIG. 11G) Specific lysis (^51Cr release assay) of K562 targets by NK cells. After 48 hours of culture alone (blue lines) or with GSCs, healthy donor NK cells were either left with GSCs ([…]) or purified and cultured in SCGM media plus 5 ng/ml IL-15 with (black lines) or without galunisertib (10 μM) (gray lines) for […]. At the end of the culture period, their cytotoxicity was tested against k562 targets by ^51Cr release assay (n=4).
NK cells were cultured either with GSCs in a 1:1 ratio or alone for 48 hours. After 48 hours of co-incubation, NK cells were then either purified again by bead selection and resuspended in SCGM media or remained in culture with GSCs for an additional 48 hours and then used for ^51Cr release assay. In a second assay, after reselection, NK cells were cultured for another 5 days in SCGM in the presence of 5 ng/ml IL-15 with or without 10 μM galunisertib before use for ^51Cr release assay.

“Also recorded” adds a separate entry of the source.

As to `c1ccc(-c2nn3c(c2-c2ccnc4cc(OCCN5CCOCC5)ccc24)CCC3)nc1` [LY2109761], the “NK cell function (CD107a, IFN-γ, TNF-α response to K562), NK cells without GSCs” value with K562 targets (NK cells alone, inhibitor 10 μM) is reported as “neither inhibitor affected NK cell function”. Besides, the “p-Smad⅔ expression (MFI) in NK cells co-cultured with GSCs” value in data set [1] is reported as “prevented GSCs from activating the TGF-β1 Smad⅔ signaling pathway in NK cells”. Also, the “GSC-induced NK cell dysfunction: natural cytotoxicity against GSC targets” value in the data set with GSC targets is “preserving the natural cytotoxicity of NK cells against K562 or GSC targets”.

For `O=C(O)[C@@H](Cc1ccccc1)NS(=O)(=O)c1ccc(-c2ccccc2)cc1` [MMP 2/9 inhibitor], the “NK cell function in cultures lacking GSCs” value in the data set with K562 targets (MMP 2/9 inhibitor 1 μM) is on record as “did not affect NK cell function in cultures lacking GSCs”. In data set [1] (NK cells with or without GSCs, inhibitor 1 μM), the “p-Smad⅔ levels in NK cells with MMP 2/9 inhibitor” value is listed as “decreased p-Smad⅔ levels”.

As to `CC(C)[C@H]1C(=O)N[C@@H](CCCN=C(N)N)C(=O)NCC(=O)N[C@@H](CC(=O)O)C(=O)N[C@H](Cc2ccccc2)C(=O)N1C` [cilengitide], the “p-Smad⅔ expression (MFI) in NK cells co-cultured with GSCs” value in data set [1] is recorded as “significantly decreased; also recorded: diminished Smad⅔ phosphorylation”. Further, in the data set with soluble TGF-β1, the “soluble TGF-β1 levels in supernatant” value is “significantly decreased levels of soluble TGF-β1; also recorded: decreased TGF-β production”. Also, the “surface marker expression on TiNKs harvested after sacrifice” value in data set [2] was “protects NK cells from TGF-β induced inhibitory phenotype in vivo”. The “tumor bioluminescence (BLI), first experiment” value in the data set on patient-derived GSCs (NK cells intratumorally every 7 days for 11 weeks, galunisertib oral 5 times a week, cilengitide i.p. three times a week) is given as “tumor bioluminescence rapidly increased”. For the same compound, the “NK-mediated GBM killing / efficacy in PDX model of GBM (summary statements)” value with patient-derived GSCs (mouse, in vivo) was “enhances NK-mediated GBM killing in vivo”.

As to IL-15: activating cytokine, in data set [3] (NK cells purified after 48 hours with GSCs, then IL-15 5 ng/ml with or without galunisertib 10 μM), the “reversal of GSC-induced dysfunction of HC-NK cells” value was “did not reverse the dysfunction of HC-NK cells induced by GSCs”. For the same compound, in data set [3] (TiNKs cultured 24 hours, galunisertib 10 μM or IL-15 5 ng/ml), the “restoration of TiNK function (specific lysis of K562; CD107, IFN-γ, TNF-α)” value is “failed to inactivate the TGF-β1 Smad⅔ signaling pathway and restore NK cell dysfunction”. Moreover, in data set [3] (TiNKs from GBM patients cultured ex vivo, galunisertib 12 hours or IL-15), the “TGF-β1 Smad⅔ signaling in TiNKs” value is listed as “failed to inactivate the TGF-β1 Smad⅔ signaling pathway”.
